Laboratory results from US20230090255A1, “MAGL INHIBITOR, PREPARATION METHOD THEREFOR AND USE THEREOF” (LUNAN PHARMACEUTICAL GROUP CORPORATION, priority 2019, published 2023).

Tests used:
[1] = system: mice pain response induced by hot plate; assay: Mice pain response induced by hot plate; assay type: in vivo, ICR mice; details: for Pain threshold: hot plate 55°C
Method: Female ICR mice (20±2) g were placed on an intelligent hot plate at 55±0.5° C., and latency (s) that the plantar of mice touched the hot plate until the occurrence of a hind paws licking response served as a pain threshold indicator; the mice (response latency <5 s or >30 s) or jumping mice were eliminated.
Grouping and administration were the same as those in Example 40.
The mice were continuously administered intragastrically for 7 consecutive days; the pain threshold of each group of mice was respectively determined once at 30, 60, 90 and 120 min after the final administration; the pain threshold greater than 60 s was calculated by 60 s.

[2] = system: mice with inflammatory pain; assay: Pain threshold of mice with inflammatory pain (complete Freund's adjuvant); assay type: in vivo, SD mice; details: for Pain threshold: complete Freund's adjuvant paw model
Method: […] (180±20) g were injected with a complete Freund’s adjuvant (50 µL/piece) at the right rear plantar of mice, and mice in the control group were injected with the corresponding volume of 0.5% sodium carboxymethylcellulose to establish a paw edema inflammatory pain model. After modeling, the mice were administered for 7 d continuously, and administered intragastrically once per day. Pain thresholds (s) of the mice were respectively determined on the 1st, 3rd and 7th day before administration and after modeling at different periods of time.
Grouping and administration were the same as those of Example 40.

[3] = system: reserpine-induced mice migraine; assay: Reserpine-induced mice migraine; assay type: in vivo, ICR mice; details: for Blood coagulation time: reserpine 0.2 mg/kg sc mice, 1 h after final administration; for brain tissue 5-HT / Times of tail suspension (struggling times within 2 min): reserpine mice; for Times of tail suspension (struggling times within 2 min): 9th day
Method: The mice in the blank control group and model group were administered intragastrically via a solvent from the 5th day after modeling, and the rest groups of mice were respectively administered corresponding medicaments and doses for intragastric administration for 10 consecutive days; 1 h later after the final administration, the mice were weighed; blood was taken at inner canthus to detect blood coagulation time; whole blood was taken, and cerebrum was taken on an ice and preserved at -20° C. for the subsequent experiment.
Behavioral test: tail suspension activity was performed; the position 1 cm away from the tail of the mice was glued by an adhesive tape on the 9th day of the test, and the adhesive tape was penetrated by a steel needle, and hung in a dark box such that the mice were hung upside down; then the mice struggling times (total number of overturning from hanging) within 2 min were observed.
The mice were weighed 1 h later after the final administration; blood of inner canthus was taken via a capillary to detect the blood coagulation time.
Blood was taken to detect the content of 5-HT in serum via high-performance liquid chromatography. Cerebrum was taken on an ice and precooled and cleaned slightly with 0.5% sodium carboxymethylcellulose, and then sucked dry with a filter paper, and placed into a cryogenic tube, and preserved at -20° C. for further use, then the content of 5-HT in brain tissues was detected by high performance liquid chromatography.
5-HT test method: a sample was precipitated with 10% perchloric acid solution according to 1:1, and then centrifuged to take supernatant for test. Chromatographic conditions: the chromatographic column is a SHIMADZU VP-ODS C18 column (250*4.6 mm, 5 um), the mobile phase is a methanol-0.01 mol/L potassium acetate buffer solution (10:90, V/V, PH is adjusted to 4.00 with 0.2 mol/L citric acid) for gradient elution; the column temperature is 25° C., flow rate is 1.00 ml/min and test wavelength is 275 nm.

ulcerative colitis mice = assay: Mice ulcerative colitis (DSS); assay type: in vivo, BALB/c mice; details: for Total times of hematochezia within the four periods / Colon length / IL-1 content: DSS mice; for Colon length: four periods; for IL-1 content: serum, ELISA
Text: Healthy male SPF-level BALB/c mice (8-week old and body mass: (20±2) g).
Modeling: the mice were randomly divided into […] at the end of the quarantine, 10 pieces for each group. The mice in the normal group drank normal water freely, and the rest groups of mice drank 1.0%-1.5% DSS solution freely for modeling, 7 d later after modeling, the mice in the modeling group drank normal water freely for 7 d, and 14 d served as a modeling period for four continuous periods, and the mice in the modeling group were administered at the same time.
End point of the experiment: experimental administration was performed for four periods, and dissection was performed on the 3rd and 4th day of the recovery period of the 4th period.
Test indicators: the mice were weighed twice a week after the beginning of the administration; diarrhea and hematochezia of the mice were observed, and times of hematochezia were recorded.
At the end of the experiment, the mice were dissected and weighed, and narcotized to take blood, then serum was preserved at -80° C. Spleen was taken and weighed to calculate the spleen index. The content of IL-1β in serum was detected via ELISA. Colorectum was cut and taken to measure the length of colorectum, then immobilized by formaldehyde and dyed by HE to detect the pathological change.

[4] = system: mice writhing caused by acetic acid; assay: Mice writhing caused by acetic acid; details: for Writhing times: 1 h before 0.7% acetic acid ip, within 20 min; for Latent time: time to first writhing; for Inhibition ratio: writhing inhibition

## Cn1c(C(=O)N2CCC(C(=O)Nc3cccc(Cl)c3)CC2)cc2ccccc21 [MAGLZ-II-18 (c)]
[1]; compared with the model group
  pain thresholds of the thermal-stimulus mice, in words: significantly extend
[1]; high dose 30 mg/kg ig 7 d, 30 min after final administration
  Pain threshold: 29.23 ± 7.95 s
[1]; high dose 30 mg/kg ig 7 d, 60 min
  Pain threshold: 30.24 ± 7.80 s
[1]; high dose 30 mg/kg ig 7 d, 90 min
  Pain threshold: 30.66 ± 8.35 s
[1]; high dose 30 mg/kg ig 7 d, 120 min
  Pain threshold: 29.87 ± 7.43 s
[1]; low dose 7.5 mg/kg ig 7 d, 30 min after final administration
  Pain threshold: 23.98 ± 6.89 s
[1]; low dose 7.5 mg/kg ig 7 d, 60 min
  Pain threshold: 24.75 ± 6.91 s
[1]; low dose 7.5 mg/kg ig 7 d, 90 min
  Pain threshold: 25.16 ± 8.87 s
[1]; low dose 7.5 mg/kg ig 7 d, 120 min
  Pain threshold: 24.28 ± 7.17 s
[1]; middle dose 15 mg/kg ig 7 d, 30 min after final administration
  Pain threshold: 26.82 ± 7.99 s
[1]; middle dose 15 mg/kg ig 7 d, 60 min
  Pain threshold: 28.52 ± 6.18 s
[1]; middle dose 15 mg/kg ig 7 d, 90 min
  Pain threshold: 28.66 ± 8.73 s
[1]; middle dose 15 mg/kg ig 7 d, 120 min
  Pain threshold: 27.88 ± 7.74 s
[2]; compared with the model group
  pain threshold of the mice with inflammatory pain, in words: significantly extend
[2]; high dose 30 mg/kg ig once per day, 0 d
  Pain threshold: 12.85±2.09^∗ s
[2]; high dose 30 mg/kg ig once per day, 1 d
  Pain threshold: 6.44±0.92^∗ s
[2]; high dose 30 mg/kg ig once per day, 3 d
  Pain threshold: 8.17±1.14^∗ s
[2]; high dose 30 mg/kg ig once per day, 7 d
  Pain threshold: 9.05±0.84^∗ s
[2]; low dose 7.5 mg/kg ig once per day, 0 d
  Pain threshold: 12.75±2.46^∗ s
[2]; low dose 7.5 mg/kg ig once per day, 1 d
  Pain threshold: 6.36±0.89^∗ s
[2]; low dose 7.5 mg/kg ig once per day, 3 d
  Pain threshold: 7.98±1.21^∗ s
[2]; low dose 7.5 mg/kg ig once per day, 7 d
  Pain threshold: 8.95±0.67^∗ s
[2]; middle dose 15 mg/kg ig once per day, 0 d
  Pain threshold: 12.86±2.07^∗ s
[2]; middle dose 15 mg/kg ig once per day, 1 d
  Pain threshold: 6.41±0.91^∗ s
[2]; middle dose 15 mg/kg ig once per day, 3 d
  Pain threshold: 8.10±1.30^∗ s
[2]; middle dose 15 mg/kg ig once per day, 7 d
  Pain threshold: 8.99±0.92^∗ s
[3]; compared with the model group
  blood coagulation time, in words: significantly extend
  level of 5-HT in the brain tissue, in words: significantly increase
  times of the tail suspension activity, in words: significantly increase
[3]; high dose 30 mg/kg ig 10 d
  Blood coagulation time: 237.13±28.75 S
  brain tissue 5-HT: 1.79 ± 0.32 nmol/g
[3]; low dose 7.5 mg/kg ig 10 d
  Blood coagulation time: 148.00±30.23 S
  brain tissue 5-HT: 1.14 ± 0.22 nmol/g
[3]; middle dose 15 mg/kg ig 10 d
  Blood coagulation time: 198.63±21.36 S
  brain tissue 5-HT: 1.37 ± 0.34 nmol/g
[3]; high dose 30 mg/kg ig
  Times of tail suspension (struggling times within 2 min): 15.88±3.8
[3]; low dose 7.5 mg/kg ig
  Times of tail suspension (struggling times within 2 min): 10.13±2.3
[3]; middle dose 15 mg/kg ig
  Times of tail suspension (struggling times within 2 min): 12.75±2.6
Ulcerative colitis mice; high dose 30 mg/kg ig
  Total times of hematochezia within the four periods: 31.80±6.6
  Colon length: 6.65±0.67 cm
  IL-1 content: 45.10 ± 8.88 pg/mL
Ulcerative colitis mice; low dose 7.5 mg/kg ig
  Total times of hematochezia within the four periods: 43.10±7.59
  Colon length: 6.25±1.17 cm
  IL-1 content: 48.08 ± 13.18 pg/mL
Ulcerative colitis mice; middle dose 15 mg/kg ig
  Total times of hematochezia within the four periods: 43.20±5.31
  Colon length: 6.47±0.71 cm
  IL-1 content: 44.09 ± 9.13 pg/mL
Ulcerative colitis mice; compared with the model group
  IL-1 content, in words: decrease
  colon length, in words: significantly increase
  total times of hematochezia, in words: reduce
[4]; compared with the model group
  latent time, in words: extend
  mice writhing times caused by acetic acid, in words: significantly decrease
[4]; high dose 30 mg/kg ig
  Writhing times: 19.9±12.2
  Latent time: 373.6 ± 114.0 s
  Inhibition ratio: 49.4%
[4]; low dose 7.5 mg/kg ig
  Writhing times: 28.3±11.9
  Latent time: 263.5 ± 77.7 s
  Inhibition ratio: 28.0%
[4]; middle dose 15 mg/kg ig
  Writhing times: 24.9±12.2
  Latent time: 312.7 ± 90.9 s
  Inhibition ratio: 36.6%
